Test results from publication PMC3587680 (European journal of medicinal chemistry, 2012).

Legend:
[1] = Thermodynamic solubility in PBS; format: physicochemical; conditions: PBS pH 7.4, 25 °C
[2] = target: T1, recombinant human thymidine kinase 1 (hTK1) (Homo sapiens, UniProt P04183); conditions: PTA conditions
T1 sequence (P04183 1-234): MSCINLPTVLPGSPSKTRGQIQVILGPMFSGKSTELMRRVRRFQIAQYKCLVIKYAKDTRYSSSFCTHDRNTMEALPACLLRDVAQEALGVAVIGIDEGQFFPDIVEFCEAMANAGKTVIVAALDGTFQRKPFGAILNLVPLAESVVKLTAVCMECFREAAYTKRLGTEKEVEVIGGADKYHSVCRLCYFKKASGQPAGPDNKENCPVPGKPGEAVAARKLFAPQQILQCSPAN

[3] = target: T1, recombinant human thymidine kinase 1 (hTK1); conditions: for kcat ± SD: apparent, varying substrate concentrations, 100 μM ATP, three replicates; for rkcat/Km (kcat/Km relative to that of dThd): current recombinant hTK1 preparation (specific activity 441 nmol/min/mg)
[4] = target: T1, recombinant human thymidine kinase 1 (hTK1); conditions: different hTK1 enzyme preparation, previous study; cited from earlier work
intracranial RG2 glioma = conditions: rats bearing intracranial RG2 glioma, cited from earlier work
L929 TK (+) cells = conditions: cited from earlier work

Substance	Solubility in PBS pH 7.4 [1]	Stability under phosphoryl transfer assay conditions (phosphorylated side products, dTMP) [2]	kcat ± SD [3] [S^-1]	rkcat/Km (kcat/Km relative to that of dThd) [3] [%]	rkcat/Km [4] [%]	Boron concentration in tumor relative to normal brain (intracranial RG2 glioma) [fold]	Boron concentration in normal brain (intracranial RG2 glioma; normal brain) [μg B/g tumor]	Boron concentration in tumor (intracranial RG2 glioma; tumor) [μg B/g tumor]	In vitro uptake in L929 TK (+) cells relative to L929 TK (−) cells (L929 TK (+) cells)
3-[2-Imino-2-{2-(closo-1,7-carboranyl)ethylamino}ethyl]thymidine [Compound 3e]	>19.5 mg/mL	did not appear to produce significant amounts of dTMP as a side product	–	–	–	–	–	–	–
3-[1(2)-closo-1,7-Carboranylpropyltetrazol-5-ylmethyl]thymidine [9c1/2]	84.2 ± 4.1 |g/mL	–	0.39 ± 0.04	7.6	–	–	–	–	–
3-[1(2)-closo-1,7-Carboranylpropyltetrazol-5-yl]thymidine [11c1/2]	25.4 - 26.3 |g/mL^2	–	0.37 ± 0.06	5.0	–	–	–	–	–
3-[1(2)-closo-1,7-Carboranylethyltetrazol-5-ylmethyl]thymidine [9b1/2]	133.1 ± 5.2 |g/mL	–	0.44 ± 0.03	14.9	–	–	–	–	–
3-[5-{2-(2,3-dihydroxyprop-1-yl)-o-carboran-1-yl}pentan-1-yl]thymidine [Compound N5-2OH]	7-10 |g/mL	–	0.42 ± 0.03	10.8	35.8	10	2.6	27.6	5-10 fold
3-[1(2)-closo-1,7-Carboranylbutyltetrazol-5-ylmethyl]thymidine [9d1/2]	33.9 ± 1.4 |g/mL	–	0.47 ± 0.04	8.9	–	–	–	–	–
3-[1(2)-closo-1,7-Carboranylethyltetrazol-5-yl]thymidine [11b1/2]	42.6 ± 1.0 |g/mL	–	0.35 ± 0.03	–	–	–	–	–	–
3-[1(2)-closo-1,7-Carboranylbutyltetrazol-5-yl]thymidine [11d1/2]	13.3 - 13.8 |g/mL ^*	–	0.32 ± 0.02	19.7	–	–	–	–	–
3-[2-Imino-2-{3-(closo-1,7-carboranyl)propylamino}ethyl]thymidine [Compound 3f]	>15 mg/mL	did not appear to produce significant amounts of dTMP as a side product	–	–	–	–	–	–	–
